Experimental data as given in patent US7067633B2, “Targeting cellular entry, cell survival, and pathogenicity by dynein light chain 1/PIN in human cells” (Board of Regents, The University of Texas System, priority 2003, dated 2006).

Experiments:
Assay type in all cases: cell-based, human
DLC1-ER interaction = assay: Coimmunoprecipitation of DLC1 with ER
Procedure: In vitro-translated ^35ER were incubated with GST-DLC1, and analyzed by SDS-PAGE and autoradiography. FIG. 13B: Identification of ER domains that interact with DLC1. GST-ER fusion proteins containing different deletion constructs were incubated with in vitro-translated 35S-DLC1 (aa 1-89), and binding was analyzed by GST pull-down assay. FIG. 13C: Mapping of the ER-binding region in DLC1. GST-fusions of various DLC1 deletion constructs were incubated with in vitro-translated ^35S-ER, and binding was analyzed by GST pull-down assay. […] Cell lysates from Ishikawa cells was immunoprecipitated (IP) with anti-ERá mAb and immunoblotted with anti-DLC1 or ER Abs. […] Cell lysates from MCF-7/TAM-sen or Ishikawa cells were treated with Tam (10^−9M) for 24 h, and IP with anti-ERá mAb and immunoblotted with anti-DLC1 or ER Abs. […] MCF-7/DLC1 cells were treated with or without Dox for 24 h and then treated with E2 (10^−9M) or Tam (10^−8M) for 24 h, and IP with anti-ERá mAb and immunoblotted with anti-DLC1 or ER Abs. FIG. 13G: Characterization of MCF-7 cells expressing T7-DLC1-Ser88A mutant under a tetracycline-inducible promoter. […] MCF-7/DLC1 and MCF-7/DLC1-Ser88A cells were treated with or without Dox for 24 h and cell lysates were IP with anti-ERá mAb and blotted with anti-DLC1, ERá and T7 Abs.
To this end, MCF-7 cells expressing a T7-DLC1 mutant in which Ser88 and amino acid 89 were deleted under a tet-inducible promoter (MCF-7/DLC1-1-87 mutant) were generated (FIG. 13G).

pS2 gene chromatin = assay: Chromatin immunoprecipitation (ChIP), pS2 promoter; conditions: DLC1 overexpression in MCF-7/DLC1 cells
Source text: FIG. 14A: Characterization of MCF-7 cells expressing T7-DLC1 under a tet-inducible promoter. Time and dose dependent upregulation of Dox-mediated T7-DLC1 expression. FIG. 14B: DLC1 deregulation potentiates stimulation of Bcl-2 by E2 and by Tam. […] FIG. 14C: DLC1 upregulation suppress Tam ability to inhibit E2-mediated ER transactivation. MCF-7/DLC1 cells were transfected with ERE-luc. […] FIG. 14D: DLC1 deregulation potentiated E2-mediated stimulation of ERE-luc activity in Ishikawa and MCF-7/TAMR1 cells. […] FIG. 14E: Recruitment of DLC1 and ERá to the pS2 promoter chromatin. MCF-7/DLC1 cells were treated with or without Dox for 24 and then with E2 (10^−9M) for 1 h. Chromatin lysates were immunoprecipitated with anti-ER-á or anti-T7 (to detect T7-DLC1) antibodies. Upper panels show the PCR analysis of 304 bp pS2 promoter fragment associated with ER or T7-DLC1.
To delineate the significance of the DLC1 in the modulation of ER transactivation, the effect of T7-DLC1 deregulation on the recruitment of ER to the ER-target pS2 gene promoter chromatin using a chromatin immunoprecipitation (ChIP) assay with anti-ERα or anti-T7 antibodies was examined. […] When the above ChIP studies were repeated using T7 antibody to isolate T7-DLC1, it was observed that both basal and ligand-activated DLC1 were also recruited to pS2 gene chromatin (FIG. 14E). […]

ZR75 cells = assay: Cell cycle progression by FACS analysis of serum-starved clones; conditions: serum-starved stable clones
Procedure: FIGS. 5A–5C—Requirement of DLC1/PIN and Pak1 interaction in cell proliferation and survival. FIG. 5A: Equal number of cells ZR75R stable cells expressing DLC1/PIN wild type or DLC1/PIN^del88-89 mutant were plated and cell proliferation was determined by trypsinizing and counting cells using a coulter counter. Each colne was plated in triplicate and experiment was repeated twice with similar results. FIG. 5B: Cell cycle progression of DLC1/PIN wild type or mutant clones was analyzed by FACS analysis. […] For example, a smooth nuclear membrane was scored as nonapoptotic, as opposed to membrane blebbing or rupture, which was scored as apoptotic. Nuclei committed to enter mitosis were not scored in either of these groups because they were easily identified for their specific “pulverized” pattern of Lamin A/C staining. Ten randomly selected fields were analyzed for each condition. […]
DLC1/PIN regulation of cell growth and survival. […] After 10 h, apoptosis was quantitated by scoring the integrity of the nuclear membrane in cells expressing both RFP and myc tags to detect DLC/DLC1/PIN and Pak1 respectively (FIG. 5D).

Compound | DLC1-ER interaction (DLC1-ER interaction; Ishikawa cells, Tam 24 h) | DLC1-ER interaction (DLC1-ER interaction; MCF-7/DLC1 cells with doxycycline) | DLC1-ER interaction (DLC1-ER interaction; MCF-7/TAM-Sen cells, Tam 24 h) | ER interaction with the pS2 gene chromatin (pS2 gene chromatin) | interaction with ER (DLC1-ER interaction; MCF-7 cells, tet-inducible T7-tagged mutant) | cell cycle distribution (ZR75 cells)
CC/C(=C(\c1ccccc1)c1ccc(OCCN(C)C)cc1)c1ccccc1 [tamoxifen] | substantially enhanced | modestly, but reproducibly, increased | not | enhanced ER interaction | – | –
DLC1/PIN^del 88-89: DLC1/PIN mutant in which Ser88 and amino acid 89 were deleted | – | – | – | – | failed to detect any interaction | significant increase in the cells in pre-Go phase
